Marks after values point to notes of the source that are not given here.
Tests used:
[1] = 10% human AB serum; LL-37 at 10^−5 M; cited from earlier work
[2] = target: T1, formyl peptide receptor (ETFR cells) (Homo sapiens, UniProt P21462); test: Chemotaxis of ETFR cells; type: cell-based; conditions: FIG. 3A
T1 construct: expressed in transfected cells; provided by H. Ali and R. Snyderman (Duke University)
T1 sequence (P21462 1-350): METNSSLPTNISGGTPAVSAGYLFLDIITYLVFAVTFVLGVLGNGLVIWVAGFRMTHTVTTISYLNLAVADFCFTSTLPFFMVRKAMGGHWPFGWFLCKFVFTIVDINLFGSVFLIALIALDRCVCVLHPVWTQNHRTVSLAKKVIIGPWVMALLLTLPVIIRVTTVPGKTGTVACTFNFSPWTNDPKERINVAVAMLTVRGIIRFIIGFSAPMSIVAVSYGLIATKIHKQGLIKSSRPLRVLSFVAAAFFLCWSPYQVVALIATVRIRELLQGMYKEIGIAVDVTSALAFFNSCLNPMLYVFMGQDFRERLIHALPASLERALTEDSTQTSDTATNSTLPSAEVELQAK
Description: (§1) A. Selective induction of FPRL1/293 cell chemotaxis by LL-37. The migration of parental HEK293 (open bars), FPRL1/293 (dotted bars), or ETFR (closed bars) cells was assessed by chemotaxis assay with the use of collagen-coated 10-μm membranes. Cells were used at a concentration of 1×10^6 cells/ml. The average C. I. (Mean±SD) of triplicate wells is shown. Spontaneous cell migration (without LL-37) was 10-20 cells/HPF. *p<0.05 when compared with chemotaxis medium alone.
(§2) Human peripheral blood mononuclear cells (PBMC) were isolated from leukopacks (Courtesy of the Transfusion Medicine Department, NIH Clinic Center, Bethesda, MD) by routine Ficoll-Hypaque density gradient centrifugation. Monocytes were purified from human PBMC with the use of MACS CD14 monocyte isolation kit (Miltenyi Biotech Inc., Auburn, CA) according to the manufacturer's recommendation (12). […]
(§3) Migration of neutrophils, monocytes, T cells, and HEK293 or transfectant cells in response to chemotactic factors was assessed using a 48-well microchemotaxis chamber technique as previously described (17, 18). […] After incubation at 37_C in humidified air with 5% CO2 for a period of time (60 min for neutrophils, 90 min for monocytes, 180 min for T cells, and 300 min for HEK293, ETFR, and FPRL1/293 cells), the membranes were removed, scraped, stained, and counted. […]

immature dendritic cells [3] = test: Chemotaxis of monocyte-derived immature dendritic cells; type: cell-based, human; conditions: monocytes differentiated into immature dendritic cells
mammalian cells = conditions: cited from earlier work
[4] = target: T2, FPRL1 (HEK293 cells stably transfected with FPRL1) (Homo sapiens, UniProt P25090); test: Chemotaxis of FPRL1/293 cells; type: cell-based; conditions: FIG. 3A
T2 construct: expressed in transfected cells; gift of P. M. Murphy and J. L. Gao (NIAID, NIH)
T2 sequence (P25090 1-351): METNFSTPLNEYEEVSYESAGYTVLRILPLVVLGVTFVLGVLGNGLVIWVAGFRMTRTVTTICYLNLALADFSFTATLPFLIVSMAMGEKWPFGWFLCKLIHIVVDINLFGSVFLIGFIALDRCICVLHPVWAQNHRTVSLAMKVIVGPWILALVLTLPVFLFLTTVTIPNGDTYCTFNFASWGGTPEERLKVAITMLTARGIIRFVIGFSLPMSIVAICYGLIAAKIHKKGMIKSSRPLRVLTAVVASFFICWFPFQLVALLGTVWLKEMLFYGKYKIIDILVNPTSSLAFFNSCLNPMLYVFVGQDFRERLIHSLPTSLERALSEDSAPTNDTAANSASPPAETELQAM
Description: as §1, §2, §3

CCR2 = target: T3, CCR2 (Homo sapiens, UniProt P41597); test: Examination of HEK293 cells stably transfected to express CCR2; type: cell-based
T3 construct: expressed in transfected cells
T3 sequence (P41597 whole entry): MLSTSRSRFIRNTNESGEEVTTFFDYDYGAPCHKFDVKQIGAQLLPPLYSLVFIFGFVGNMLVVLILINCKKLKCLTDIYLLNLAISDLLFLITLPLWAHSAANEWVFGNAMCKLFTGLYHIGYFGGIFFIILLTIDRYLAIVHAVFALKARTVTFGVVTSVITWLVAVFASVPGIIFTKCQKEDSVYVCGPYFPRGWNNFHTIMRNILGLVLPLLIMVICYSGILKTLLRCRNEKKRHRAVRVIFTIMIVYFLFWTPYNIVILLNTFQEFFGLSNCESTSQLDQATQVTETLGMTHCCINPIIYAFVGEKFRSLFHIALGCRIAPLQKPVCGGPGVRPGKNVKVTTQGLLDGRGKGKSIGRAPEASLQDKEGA
Description: To mediate its chemotactic effect on monocytes, LL-37 must use a chemotactic receptor expressed by monocytes, but not by monocyte-derived immature dendritic cells.

[5] = test system: human peripheral blood neutrophils; test: Neutrophil chemotaxis assay; type: cell-based
Description: (§4) FIGS. 4A-B show the chemotaxis of human neutrophils (A) and CD4 T lymphocytes (B) in response to LL-37. The cell migration was assessed by chemotaxis assay with the use of uncoated (A) or fibronectin-coated (B) 5 μm membranes. The results are presented as the average C. I. (Mean±SD) of triplicate wells. *p<0.05 when compared with spontaneous cell migration (chemotactic medium alone). Neutrophils and CD4 T cells were used at a concentration of 1×10^6 cells/ml and 5×10^6 cells/ml, respectively. Spontaneous neutrophil and T cell migration (without LL-37) was 30-50 and 30-40 cells/HPF, respectively.
(§5) Human peripheral blood mononuclear cells (PBMC) were isolated from leukopacks (Courtesy of the Transfusion Medicine Department, NIH Clinic Center, Bethesda, MD) by routine Ficoll-Hypaque density gradient centrifugation. […]
as §3

immature dendritic cells [6] = test: Ca2+ mobilization in monocyte-derived immature dendritic cells; type: cell-based, human; conditions: monocytes differentiated into immature dendritic cells
FPRL1 (FPRL1/293 cells) = target: T4, FPRL1 (FPRL1/293 cells) (Homo sapiens, UniProt P25090); test: Ca2+ mobilization assay in FPRL1/293 cells; type: cell-based; conditions: FIG. 3B
T4 construct: expressed in transfected cells; gift of P. M. Murphy and J. L. Gao (NIAID, NIH)
T4 sequence (P25090 1-351): T2 sequence (P25090 1-351)
Description: B. LL-37-induced Ca^2+ flux in FPRL1/293 cells. The arrow indicates the time point where LL-37 was applied to the cells.
as §2, with “(12). Neutrophils were purified from the same leukopacks by 3% dextran sedimentation. T cells were purified from PBMC by the use of Human CD4 T Cell Enrichment Columns (R & D Systems, Minneapolis, MN) (12). The purity of neutrophils, monocytes, and T cells by FACScan analysis was more than 95%.” for “(12).”
Monocytes or FPRL1/293 cells (10^7 cells/ml in RPMI 1640 containing 10% FBS) were loaded by incubating with 5 μM Fura-2 (Molecular Probe) at 24_C for 30 minutes in the dark. […] Each 2 ml of loaded cells suspension was then transferred into a quartz cuvette, which was placed in a luminescence spectrometer LS50 B (Perkin-Elmer Limited, Beaconsfield, U.K). Ca^2+mobilization of the cells in response to chemotactic factors was measured by recording the ratio of fluorescence emitted at 510 nm after sequential excitation at 340 nm and 380 nm.

human CD4 T cells = test: CD4 T lymphocyte chemotaxis assay; type: cell-based
Description: as §4, §5, §3

[7] = target: T1, formyl peptide receptor (ETFR cells); test: Ca2+ flux in ETFR cells; type: cell-based
parental HEK293 cells = test: Chemotaxis of parental HEK293 cells; type: cell-based, human; conditions: FIG. 3A
Description: as §1
(§6) Migration of neutrophils, monocytes, T cells, and HEK293 or transfectant cells in response to chemotactic factors was assessed using a 48-well microchemotaxis chamber technique as previously described (17, 18). Chemotactic factors diluted in chemotaxis medium (CM, RPMI 1640 containing 1% BSA) were placed in the wells of the lower compartment of the chamber (Neuro Probe, Cabin John, […]), and cells suspended in CM were added to the upper compartment. The lower and upper compartments were separated by a polycarbonate membrane (Osmonics, Livermore, Calf.). After incubation at 37_C in humidified air with 5% CO2 for a period of time (60 min for neutrophils, 90 min for monocytes, 180 min for T cells, and 300 min for HEK293, ETFR, and FPRL1/293 cells), the membranes were removed, scraped, stained, and counted. The results are presented as number of cells per high power field (No./HPF) or as chemotactic index (C.I.).

[8] = test system: human peripheral blood monocytes; test: Monocyte chemotaxis assay (48-well microchemotaxis chamber, incl. checkerboard analysis); type: cell-based; conditions: for Migrated monocytes (checkerboard analysis): monocytes 1 × 10^6/ml, Mean ± SD of triplicate wells
Description: A. The migration of monocytes (1×10^6 cells/ml) was assessed by chemotaxis assay using 5-μm uncoated membranes. Spontaneous cell migration (without LL-37) was 30-50 cells/HPF. The average C. I. (Mean ±SD) of triplicate wells is shown. *p<0.05 when compared with chemotaxis medium alone (open bar). […]
(§7) Human peripheral blood mononuclear cells (PBMC) were isolated from leukopacks (Courtesy of the Transfusion Medicine Department, NIH Clinic Center, Bethesda, MD) by routine Ficoll-Hypaque density gradient centrifugation. Monocytes were purified from human PBMC with the use of MACS CD14 monocyte isolation kit (Miltenyi Biotech Inc., Auburn, CA) according to the manufacturer's recommendation (12). Neutrophils were purified from the same leukopacks by 3% dextran sedimentation. T cells were purified from PBMC by the use of Human CD4 T Cell Enrichment Columns (R & D Systems, Minneapolis, MN) (12). The purity of neutrophils, monocytes, and T cells by FACScan analysis was more than 95%. Rat basophilic leukemia cells stably transfected with epitope-tagged formyl peptide receptor (ETFR cells) were generously provided by Drs. H. Ali and R. Snyderman (Duke University, Durham, NC), and maintained in the presence of 0.8 mg/ml of geneticin in DMEM supplemented with 10% FBS. Human embryonic kidney cells 293 stably transfected with FPRL1 (designated FPRL1/293 cells thereafter) were a gift of Drs. P. M. Murphy and J. L. Gao (NIAID, NIH, Bethesda, Md) and were maintained in the presence of 2 mg/ml of geneticin in DMEM supplemented with 10% FBS.
as §6

[9] = test system: human peripheral blood monocytes; test: Ca2+ mobilization assay in monocytes (Fura-2); type: cell-based; design: Ca2+ flux in freshly isolated monocytes at single concentration: dose or concentration left out as unconfirmed
Description: as §7
Monocytes or FPRL1/293 cells (10^7 cells/ml in RPMI 1640 containing 10% FBS) were loaded by incubating with 5 μM Fura-2 (Molecular Probe) at 24_C for 30 minutes in the dark. Subsequently, the loaded cells were washed with and resuspended (10^6 cells/ml) in saline buffer (138 mM NaCl, 6 mM KC1, 1 mM CaCl2, 10 mM HEPES, 5 mM glucose, and 1% BSA, pH 7.4). Each 2 ml of loaded cells suspension was then transferred into a quartz cuvette, which was placed in a luminescence spectrometer LS50 B (Perkin-Elmer Limited, Beaconsfield, U.K). Ca^2+mobilization of the cells in response to chemotactic factors was measured by recording the ratio of fluorescence emitted at 510 nm after sequential excitation at 340 nm and 380 nm.

LL-37: 37-residue mature antimicrobial peptide cleaved from hCAP18, human cathelicidin; synthesized by solid-phase Fmoc chemistry
Antimicrobial activity in presence of serum [1]: completely block
Migration of ETFR cells [2]: did not respond
Chemotaxis response of immature dendritic cells (immature dendritic cells [3]): could not respond
Concentration damaging mammalian cells (cytocidal effect) (mammalian cells): above 5×10^−5 M
Migration of FPRL1/293 cells [4]: migrated in response to LL-37 in a dose-dependent manner
CCR2 as a receptor (CCR2-transfected HEK293 cells) (CCR2): CCR2 was not a receptor
Optimal concentration to chemoattract human leukocytes (neutrophils) ([5]; FIG. 4): 10^−5 M
Migration of purified neutrophils ([5]; FIG. 4A): induced dose-dependent migration
Ca2+ mobilization response of immature dendritic cells (immature dendritic cells [6]): could not respond
Ca2+ flux in FPRL1/293 cells (FPRL1 (FPRL1/293 cells)): induced Ca^2+flux in a dose-dependent manner
Optimal concentration to chemoattract human leukocytes (CD4 T cells) (human CD4 T cells; FIG. 4): 10^−5 M
Migration of CD4 T cells (human CD4 T cells; FIG. 4B): induced dose-dependent migration
Ca2+ flux in ETFR cells [7]: not in ETFR cells
Migration of parental HEK293 cells (parental HEK293 cells): did not respond
LL-37-induced chemotaxis of monocytes in presence of serum ([8]; 10% human AB serum, FIG. 2B): not significantly inhibited
Migrated monocytes (checkerboard analysis) ([8]; LL-37 lower wells 0 μM, upper wells 1 μM): 45 ± 6 No./HPF
Migrated monocytes (checkerboard analysis) ([8]; LL-37 lower wells 0 μM, upper wells 10 μM): 44 ± 7 No./HPF
Migrated monocytes (checkerboard analysis) ([8]; LL-37 lower wells 1 μM, upper wells 0 μM): 135 ± 15** No./HPF
Migrated monocytes (checkerboard analysis) ([8]; LL-37 lower wells 1 μM, upper wells 1 μM): 50 ± 8 No./HPF
Migrated monocytes (checkerboard analysis) ([8]; LL-37 lower wells 1 μM, upper wells 10 μM): 40 ± 6 No./HPF
Migrated monocytes (checkerboard analysis) ([8]; LL-37 lower wells 10 μM, upper wells 0 μM): 495 ± 29** No./HPF
Migrated monocytes (checkerboard analysis) ([8]; LL-37 lower wells 10 μM, upper wells 1 μM): 265 ± 5** No./HPF
Migrated monocytes (checkerboard analysis) ([8]; LL-37 lower wells 10 μM, upper wells 10 μM): 95 ± 2* No./HPF
Optimal concentration for induction of monocyte migration ([8]; dose-dependent, FIG. 1A): 10^−5 M
Induction of Ca2+ flux in monocytes ([9]; FIG. 1B): dose-dependently induced Ca^2+ flux
Desensitization of Su peptide-induced Ca2+ flux in monocytes ([9]; Su peptide after LL-37 at 10^−5 M, FIG. 3C b): almost completely desensitized
Ca2+ flux in freshly isolated monocytes at single concentration ([9]; peptide, FIG. 3C a and c): induced Ca^2+ flux to a similar extent

Reference: patent publication US20040013679A1, “LL-37 is an immunostimulant” (priority 2000, published 2004)
